Assay [1] concerns Mycobacterium smegmatis. Nature of the assay: agar well diffusion assay, M. smegmatis. The format is cell-based. As to conditions: from edge of agar well. As to the method: (§1) Both qualitative and quantitative screens were performed. Qualitative screening was accomplished using the agar well diffusion assay technque while quantitative screening was accomplished by the two-fold (broth) serial dilution method to determine the minimum inhibitory concentration (MIC). Innoculation was accomplished with one loop-full of a 1:10 dilution of the 24-hour-old broth culture, (fungal cultures and M.smegmatis more often required 48 to 72 hours of incubation) of the test organisms in sterile water. Streptomycin sulfate was used as a positive control for antibacterial activity while amphitericin B was used as an antifungal positive control. Organisms utilized in the screens included gram-positive, gram-negative, and acid-fast bacteria as well as different types of fungi. […] An intermediate type activity is seen where R is hydrogen. However, where R is lengthened up to C15 a decrease in activity was noted. Total saturation of the two double bonds in the compounds having a methyl side chain lead, in most cases, to an increase in both antifungal and antibacterial activity.

Assay [2] deals with Pseudomonas aeruginosa. Nature of the assay: agar well diffusion assay, Ps. aeruginosa. The note with it: from edge of agar well. The format is cell-based. As to the method:
as §1

In assay [3] the test system is Staphylococcus aureus. Nature of the assay: agar well diffusion assay, S. aureus. It counts as cell-based. The note with it: from edge of agar well. The method, then:
as §1

The subject of assay [4] is Staphylococcus aureus. Nature of the assay: MIC, two-fold (broth) serial dilution, S. aureus. The format is cell-based. The method, then:
as §1

The subject of assay [5] is Escherichia coli. Nature of the assay: agar well diffusion assay, E. coli. As to conditions: from edge of agar well. It counts as cell-based. As to the method:
as §1

Assay [6] has as its system Bacillus subtilis. Nature of the assay: MIC, two-fold (broth) serial dilution, B. subtilis. It counts as cell-based. As to the method: as §1
Assay [7] has as its system Bacillus subtilis. Briefly: agar well diffusion assay, B. subtilis. The format is cell-based. As to conditions: from edge of agar well. As to the method:
as §1

For assay [8], the system named is Mycobacterium smegmatis. Briefly: MIC, two-fold (broth) serial dilution, M. smegmatis. It counts as cell-based. As to the method:
as §1

In assay [9] the test system is Saccharomyces cerevisiae. Briefly: MIC, two-fold (broth) serial dilution, S. cerevisiae. It counts as cell-based. The method, then:
as §1

The test system of assay [10] is Aspergillus niger. Briefly: agar well diffusion assay, A. niger. The format is cell-based. The note with it: from edge of agar well. As to the method: as §1
For assay [11], the system named is Trichophyton mentagrophytes. Nature of the assay: agar well diffusion assay, T. mentagrophytes. It counts as cell-based. The note with it: one entry across 48 hr and 72 hr. As to the method: as §1
For assay [12], the system named is Saccharomyces cerevisiae. Briefly: agar well diffusion assay, S. cerevisiae. It counts as cell-based. As to conditions: from edge of agar well. The method, then:
as §1

In assay [13] the test system is carrageenan-induced rat paw edema. Briefly: carrageenan-induced rat paw edema test, intraperitoneal dosing. The format is in vivo. As to conditions: Table 5, * P = 0.01. As to the method:
Two methods were used to assess the antiinflammatory activity of the compounds of the invention: the carrageenan-induced rat paw edema test and, the erythrocyte membrane stabilization assay.
In the Rat Paw Edema Test, the rats utilized were divided into test groups of six to eight animals, weighed and marked so that individual rats could be identified; one hour before testing all rats were given a 700 mg/kg intraperitoneal injection of ethyl urethane in distilled water to render them tractable during testing. A circle was drawn, with a felt-tipped marker, around the hind leg of each rat just above the ankle, and each rat was dosed with a test or control compound by intraperitoneal injection. Negative control groups received the vehicle; while positive control groups received a dose of phenylbutazone (PBZ) as shown in Table II. Test compounds were given at doses of 60, 120, 240 and 480 mg/kg. The positive controls were given at 120 mg/kg and 60 mg/kg. Phenylbutazone was prepared for injection by suspending it in normal saline using Tween 60. The rats were then held in group cages for 30 minutes. The volume of the left hind paw was measured using a mercury displacement pleysmograph. The paw is dipped into the mercury until the mercury touches the line above the ankle. Mercury is then withdrawn until the mercury returns to its original level. The amount of mercury removed is measured in milliliters (ml). The mercury can be measured accurately to 0.01 ml. This left hind paw was then injected with 0.1 ml of a 5% w/v solution of viscous carageenan in normal saline. The injection was given between the metatarsal bones using a 27 gauge needle, and the rats then held in group cages for 3 hours. The volume of the left hind paws was measured again in the pleysmograph. The results were computed in the following manner:
a. A mean is taken for both the pre-injection and post-injection paw volume of each test group.
b. The mean difference in volume (MDV) for each test group is computed by subtracting the pre-injection means from the post-injection mean.
c. The percent of control is computed for each test [formula] The percent of control is used to compare the efficacy of the various drug treatments.
d. The percent increase in paw volume is calculated for each group as: [formula] The percent increase is used to compare the amount of edma observed in one experiment to the amount of edma observed in other experiments.
The data from the rat paw test were further analyzed using a one-way analysis of varience (ANOVA) and Duncan's New Multiple Range Test. The pre-injection score of each animal was subtracted from his post-injection score and an analysis of the different scores were conducted.
The procedure described above was followed. […] The vehicle control used was Tween 60, Arlacel and distilled water prepared without CBC(II).

Assay [14] has as its system Candida albicans. Nature of the assay: agar well diffusion assay, C. albicans. It counts as cell-based. As to conditions: from edge of agar well. As to the method: as §1
The test system of assay [15] is erythrocyte (heat-induced hemolysis). Nature of the assay: erythrocyte membrane stabilization assay (heat-induced erythrocyte hemolysis). The format is cell-based. As to conditions: Erythrocyte; for inhibition at 250 µM: 2.5 × 10^-4 M. The method, then: The published procedure (Proc. Soc. Exp. Biol. Med. 1967; 125; 837-842 Brow et al) for in vitro assay for antiinflammatory agents based on stabilization of erythrocytes was used. All compounds were prepared for administration by dissolving in physiologic saline or suspending in 2% ethanol in saline and the pH adjusted to 7.4 The concentrations tested in one series are given in Table 8. Aspirin (ASA) and phenylbutazone were used as positive controls for comparison of activity. Tests using this procedure were successfully and repeatedly using either 40% or 20% RBC suspensions.

In assay [16] the test system is Trichophyton mentagrophytes. Nature of the assay: MIC, two-fold (broth) serial dilution, T. mentagrophytes. The format is cell-based. As to the method: as §1
Assay [17] has as its system Candida albicans. Briefly: MIC, two-fold (broth) serial dilution, C. albicans. It counts as cell-based. The method, then:
as §1

Setting [18] is: 24 hr, listed as Streptomycin-SO4.
The mark [19] stands for this setting: 48 hr, listed as Streptomycin-SO4.

Values after ≈ are worked out from the molar mass of the structure shown. Values joined by “and” are separate entries in the source; they are usually repeats but may differ in a detail not shown here. Identical values can stand only once. Like-named read-outs stand apart in the source and are kept apart here.

As to `[H]/N=C(/N)N[C@H]1[C@H](O)[C@@H](O)[C@H](O[C@@H]2O[C@@H](C)[C@](O)(C=O)[C@H]2O[C@@H]2O[C@@H](CO)[C@H](O)[C@@H](O)[C@@H]2NC)[C@@H](N/C(N)=N\[H])[C@@H]1O` [Streptomycin SO4, reference compound], the “width of inhibition zone” value in [1] (24 hr) came out at 20. mm; in [1] (48 hr), 22. mm; in assay [2] (24 hr), 3. mm; in [2] (setting [18]), 7. mm; in assay [2] (48 hr) it was 3. mm; in assay [2] (setting [19]) it was 6. mm. Moreover, the “width of inhibition zone” value worked out at 9. mm in assay [3] (24 hr); 10. mm in assay [3] (setting [18]); 9. mm in [3] (48 hr); 10. mm in assay [3] (setting [19]); 2. mm in assay [5] (24 hr); 5. mm in assay [5] (setting [18]). Moreover, the “width of inhibition zone” value is 2. mm in assay [5] (48 hr); 5. mm in assay [5] (setting [19]); 7. mm in assay [7] (24 hr); 11. mm in assay [7] (setting [18]); 8. mm in assay [7] (48 hr); 10. mm in assay [7] (setting [19]). The MIC was 3.12 µg/mL (≈ 5.36 µM) in assay [4] (24 hr); 12.5 µg/mL and 6.25 µg/mL in [4] (48 hr); 12.5 µg/mL and 25.0 µg/mL and 25 µg/mL in assay [4] (setting [19]); 3.12 µg/mL (≈ 5.36 µM) in assay [6] (24 hr); 25 µg/mL (≈ 43 µM) in assay [6] (48 hr); 1.56 µg/mL (≈ 2.68 µM) in [8] (24 hr). The MIC was 1.56 µg/mL and 0.78 µg/mL in [8] (setting [18]); 1.56 µg/mL (≈ 2.68 µM) in [8] (48 hr); 1.56 µg/mL and 0.78 µg/mL in assay [8] (setting [19]).

Consider “2-methyl-2(4'-methyl-pentyl)-5-hydroxy-7-methyl chroman [CBC (V)]”, for which the MIC in [9] (48 hr) was 6.25 µg/mL and 12.5 µg/mL; in [9] (72 hr), 12.5 µg/mL; in [4] (48 hr), 3.12 µg/mL; in [6] (24 hr), 3.12 µg/mL and 1.56 µg/mL; in [6] (48 hr), 3.12 µg/mL and 1.56 µg/mL; in [8] (24 hr), 3.12 µg/mL. In addition, the “width of inhibition zone” value in assay [1] (24 hr) is 25. mm; in assay [1] (48 hr) it was 25. mm; in assay [2] (24 hr), 4. mm; in [2] (48 hr) it was 3. mm; in [3] (24 hr), 25. mm; in assay [3] (48 hr) it was 25. mm. Also, the “width of inhibition zone” value in assay [10] (48 hr) is recorded as 3. mm; in assay [10] (72 hr), 3. mm; in assay [12] (48 hr), 22. mm; in assay [12] (72 hr), 22. mm; in [5] (24 hr) it was 5. mm; in assay [5] (48 hr), 5. mm. In addition, the “width of inhibition zone” value is 16.0 mm in assay [7] (24 hr), 9.0 mm in assay [7] (48 hr), 3.0 mm in [14] (48 hr) and 3.0 mm in [14] (72 hr). The “agar well diffusion result in words” value in [11] was “No growth”. In addition, the “inhibition of carrageenan-induced rat paw edema” value is given as 53% in assay [13] (60 mg/kg i.p.), 63% in assay [13] (120 mg/kg i.p.) and 92% in assay [13] (240 mg/kg i.p.).

Regarding `CCCCCc1cc(O)c2c(c1)OC(C)(CCCC(C)C)CC2` (centres unmarked) [CBC (X), 2-methyl-2(4'-methyl-pentyl)-5-hydroxy-7-pentyl chroman], the “width of inhibition zone” value in assay [1] (24 hr) amounted to 7. mm; in [1] (48 hr) it was 7. mm; in [2] (24 hr) it was 1. mm; in assay [2] (48 hr), 1. mm; in assay [3] (24 hr) it was 13. mm; in [3] (48 hr) it was 13. mm. The “width of inhibition zone” value in assay [10] (48 hr) came to 1. mm; in assay [10] (72 hr) it was 1. mm; in [12] (48 hr), 7. mm; in assay [12] (72 hr) it was 7. mm; in assay [5] (24 hr), 5. mm; in [5] (48 hr) it was 5. mm. Besides, the “width of inhibition zone” value in assay [7] (24 hr) was determined as 4.0 mm; in assay [7] (48 hr), 4.0 mm; in [14] (48 hr), 2. mm; in assay [14] (72 hr) it was 3. mm. Besides, the “agar well diffusion result in words” value in assay [11] is recorded as “No growth”.

In the case of `Cc1ccc(C(=O)c2ccc(CC(=O)O)n2C)cc1` [Tolmetin, reference compound], the inhibition at 200 µM in assay [15] (Table 9 Test 1 (20% RBC), 2.0 × 10^-4 M, read-out: percent inhibition of heat-induced erythrocyte hemolysis) was 27%.

Take `CC(=O)Oc1ccccc1C(=O)O` [Aspirin, Acetylsalicylic Acid, reference compound]: the inhibition at 250 µM in assay [15] (Table 8, read-out: inhibition of heat-induced erythrocyte hemolysis) was found to be 21%; in assay [15] (Table 9 Test 1 (20% RBC), read-out: percent inhibition of heat-induced erythrocyte hemolysis), 21%. For the same compound, the inhibition at 500 µM is 40% in [15] (Table 9 Test 3 (20% RBC), 5.0 × 10^-4 M, read-out: percent inhibition of heat-induced erythrocyte hemolysis) and 40% in assay [15] (5×10^-4 M, read-out: inhibition of heat-induced red cell hemolysis).

Regarding “2-methyl-2(4'-methyl-pent-3'-enyl)-5-hydroxy-7-pent-dec-8'-enyl chromene [CBC (VIII)]”, the MIC worked out at 100 µg/mL in assay [9] (48 hr); 100 µg/mL in assay [9] (72 hr); 25 µg/mL in assay [16] (48 hr); 50 µg/mL in assay [16] (72 hr); 50 µg/mL in [17] (48 hr); 100 µg/mL in [17] (72 hr). The MIC in assay [8] (24 hr) is 12.5 µg/mL and 25 µg/mL.

Turning to `CCCCCc1cc(O)cc2c1C=CC(C)(CCC=C(C)C)O2` (centres unmarked) [Iso CBC (IX), 2-methyl-2(4'-methyl-pent-3'-enyl)-5-pentyl-7-hydroxy chromene], the inhibition at 100 µM in assay [15] (read-out: inhibition of heat-induced erythrocyte hemolysis, Table 8, 1 × 10^-4 M) stood at 75%. The minimum inhibitory concentration (MIC) was 0.78 µg/mL (≈ 2.48 µM) in [6] (Bacillus subtilis, 24 h, read-out: MIC); 3.12 µg/mL (≈ 9.92 µM) in assay [6] (Bacillus subtilis, 48 h, read-out: MIC); 50 µg/mL (≈ 159 µM) in assay [17] (Candida albicans, 48 h, read-out: MIC); 100 µg/mL (≈ 318 µM) in assay [17] (Candida albicans, 72 h, read-out: MIC); 25 µg/mL (≈ 79.5 µM) in assay [8] (Mycolicibacterium smegmatis, 24 h, read-out: MIC); 25 µg/mL (≈ 79.5 µM) in [8] (Mycolicibacterium smegmatis, 48 h, read-out: MIC).

For the origin of these results see patent US4837228A, “Antiinflammatory and antimicrobial compounds and compositions” (The University of Mississippi, priority 1982, dated 1989).
